According to patent US8785655B2, “Ionic liquid solvents” (Dublin City University, priority 2009, dated 2014):

Legend:
[1] = test system: Staphylococcus aureus CCM 4516/08; assay: Screen against bacteria, MIC/IC80; type: cell-based; conditions: SA
[2] = test system: Staphylococcus aureus H 5996/08 Methiciline-resistant; assay: Screen against bacteria, MIC/IC80; type: cell-based; conditions: MRSA
[3] = test system: Staphylococcus epidermidis H 6966/08; assay: Screen against bacteria, MIC/IC80; type: cell-based; conditions: SE
[4] = test system: Enterococcus sp. J 14365/08; assay: Screen against bacteria, MIC/IC80; type: cell-based; conditions: EF
Escherichia coli CCM4517 = assay: Screen against bacteria, MIC/IC80; type: cell-based; conditions: EC
[5] = test system: Klebsiella pneumoniae D 11750/08; assay: Screen against bacteria, MIC/IC80; type: cell-based; conditions: KP
[6] = test system: Klebsiella pneumoniae J 14368/08 ESBL-positive; assay: Screen against bacteria, MIC/IC80; type: cell-based; conditions: KP-E
[7] = test system: Pseudomonas aeruginosa CCM 1961; assay: Screen against bacteria, MIC/IC80; type: cell-based; conditions: PA
fungi and bacteria = type: cell-based
Description: All the 12 bromide salts and 12 octylsulfate CILs in the table below were screened against fungi and bacteria.
CILs with bromide as anion have been screened against the following Fungi and bacteria:
. […] MICs were determined twice and in duplicate.

[8] = test system: Candida albicans ATCC 44859; assay: In vitro antifungal activity, MIC by microdilution (NCCLS M27-A)
Description: (§1) In vitro antifungal activities of the compounds were evaluated on the collection of fungal strains deposited at the Department of Biological and Medical Sciences, Faculty of Pharmacy, Charles University, Czech Republic. All the isolates were maintained on Sabouraud dextrose agar prior to being tested.
(§2) Minimum inhibitory concentrations (MICs) were determined by the microdilution format of the NCCLS M27-A guidelines. […] RPMI 1640 (Sevapharma, Prague) medium supplemented with L-glutamine and buffered with 0.165 M morpholinepropanesulfonic acid to pH 7.0 was used as the test medium. The wells of the microdilution tray contained 100 μl of the RPMI 1640 medium with 2-fold serial dilutions of the compounds (1000 to 0.24 μmol/l for the new compounds) and 100 μl of inoculum suspension. Fungal inoculum in RPMI 1640 was prepared to give a final concentration of 5×103±0.2 cfu·ml-1. The trays were incubated at 35° C. and MICs were read visually for filamentous fungi and photometrically for yeasts as an optical density (OD) at 540 nm after 24 h and 48 h. The MICs were defined as 80% inhibition of the growth of control. MICs were determined twice and in duplicate. The deviations from the usually obtained were no higher than the nearest concentration value up and down the dilution scale.

[9] = test system: Candida albicans ATCC 90028; assay: as above
[10] = test system: Candida parapsilosis ATCC 22019; assay: as above; conditions: CP
Candida krusei ATCC 6258 = assay: as above
Candida krusei E28 = assay: as above
Description: All the isolates were maintained on Sabouraud dextrose agar prior to being tested.
as §2

Candida tropicalis 156 = assay: as above; conditions: CT
Description: as §1, §2

Candida glabrata 20/l = assay: as above; conditions: CG
[11] = test system: Candida lusitaniae 2446/l; assay: as above; conditions: CL
[12] = test system: Aspergillus fumigatus 231; assay: as above; conditions: AF
Description: as §1, §2

Absidia corymbifera 272 = assay: as above; conditions: AC
[13] = test system: Trichophyton mentagrophytes 445; assay: as above; conditions: TM
Description: as §1, §2

| Molecule | MIC/IC80 ([1]; 24 h) | MIC/IC80 ([1]; 48 h) | MIC/IC80 ([2]; 24 h) | MIC/IC80 ([2]; 48 h) | MIC/IC80 ([3]; 24 h) | MIC/IC80 ([3]; 48 h) | MIC/IC80 ([4]; 24 h) | MIC/IC80 ([4]; 48 h) | MIC/IC80 (Escherichia coli CCM4517; 24 h) | MIC/IC80 (Escherichia coli CCM4517; 48 h) | MIC/IC80 ([5]; 24 h) | MIC/IC80 ([5]; 48 h) | MIC/IC80 ([6]; 24 h) | MIC/IC80 ([6]; 48 h) | MIC/IC80 ([7]; 24 h) | MIC/IC80 ([7]; 48 h) | MIC/IC80 ([8]; CA1, 24 h) | MIC/IC80 ([8]; CA1, 48 h) | MIC/IC80 ([9]; CA2, 24 h) | MIC/IC80 ([9]; CA2, 48 h) | further results |
| --- | --- | --- | --- | --- | --- | --- | --- | --- | --- | --- | --- | --- | --- | --- | --- | --- | --- | --- | --- | --- | --- |
| CCCCCCCCOS(=O)(=O)[O-].CCCCCOC(=O)[C@@H](OC(=O)Cn1cc[n+](C)c1)c1ccccc1 [KG302, S-3-methyl-1-[1-(pentoxycarbonyl)-1-phenylmethoxycarbonylmethyl]imidazolium octyl sulphate] | >1 mM | >1 mM | >1 mM | >1 mM | 1 mM | >1 mM | >1 mM | >1 mM | >1 mM | >1 mM | >1 mM | >1 mM | >1 mM | >1 mM | >1 mM | >1 mM | 1 mM | 1 mM | >1 mM | >1 mM | toxicity / inhibition of the growth of fungi and bacteria (fungi and bacteria): inhibit the growth of fungi and bacteria; MIC/IC80 ([10]; 24 h): >1 mM; MIC/IC80 ([10]; 48 h): >1 mM; MIC/IC80 (Candida krusei ATCC 6258; CK1, 24 h): >1 mM; MIC/IC80 (Candida krusei ATCC 6258; CK1, 48 h): >1 mM; MIC/IC80 (Candida krusei E28; CK2, 24 h): >1 mM; MIC/IC80 (Candida krusei E28; CK2, 48 h): >1 mM; MIC/IC80 (Candida tropicalis 156; 24 h): >1 mM; MIC/IC80 (Candida tropicalis 156; 48 h): >1 mM; MIC/IC80 (Candida glabrata 20/l; 24 h): >1 mM; MIC/IC80 (Candida glabrata 20/l; 48 h): >1 mM; MIC/IC80 ([11]; 24 h): >1 mM; MIC/IC80 ([11]; 48 h): >1 mM; MIC/IC80 ([12]; 24 h): 1 mM; MIC/IC80 ([12]; 48 h): >1 mM; MIC/IC80 (Absidia corymbifera 272; 24 h): 1 mM; MIC/IC80 (Absidia corymbifera 272; 48 h): >1 mM; MIC/IC80 ([13]; 72 h): 0.25 mM; MIC/IC80 ([13]; 120 h): 0.5 mM |
| R-3-methyl-1-[1-(methoxycarbonyl)-1-phenylmethoxycarbonylmethyl]imidazolium octyl sulphate [KG87] | >1 mM | >1 mM | >1 mM | >1 mM | >1 mM | >1 mM | >1 mM | >1 mM | >1 mM | >1 mM | >1 mM | >1 mM | >1 mM | >1 mM | >1 mM | >1 mM | >1 mM | >1 mM | >1 mM | >1 mM | MIC/IC80 ([10]; 24 h): >1 mM; MIC/IC80 ([10]; 48 h): >1 mM; MIC/IC80 (Candida krusei ATCC 6258; CK1, 24 h): 1 mM; MIC/IC80 (Candida krusei ATCC 6258; CK1, 48 h): >1 mM; MIC/IC80 (Candida krusei E28; CK2, 24 h): 1 mM; MIC/IC80 (Candida krusei E28; CK2, 48 h): >1 mM; MIC/IC80 (Candida tropicalis 156; 24 h): >1 mM; MIC/IC80 (Candida tropicalis 156; 48 h): >1 mM; MIC/IC80 (Candida glabrata 20/l; 24 h): >1 mM; MIC/IC80 (Candida glabrata 20/l; 48 h): >1 mM; MIC/IC80 ([11]; 24 h): >1 mM; MIC/IC80 ([11]; 48 h): >1 mM; MIC/IC80 ([12]; 24 h): >1 mM; MIC/IC80 ([12]; 48 h): >1 mM; MIC/IC80 (Absidia corymbifera 272; 24 h): >1 mM; MIC/IC80 (Absidia corymbifera 272; 48 h): >1 mM; MIC/IC80 ([13]; 72 h): 1 mM; MIC/IC80 ([13]; 120 h): >1 mM |
| R-3-methyl-1-[1-(pentoxycarbonyl)-1-methylmethoxycarbonylmethyl]imidazolium octyl sulphate [KG171] | >1 mM | >1 mM | >1 mM | >1 mM | >1 mM | >1 mM | >1 mM | >1 mM | >1 mM | >1 mM | >1 mM | >1 mM | >1 mM | >1 mM | >1 mM | >1 mM | >1 mM | >1 mM | >1 mM | >1 mM | MIC/IC80 ([10]; 24 h): >1 mM; MIC/IC80 ([10]; 48 h): >1 mM; MIC/IC80 (Candida krusei ATCC 6258; CK1, 24 h): >1 mM; MIC/IC80 (Candida krusei ATCC 6258; CK1, 48 h): >1 mM; MIC/IC80 (Candida krusei E28; CK2, 24 h): >1 mM; MIC/IC80 (Candida krusei E28; CK2, 48 h): >1 mM; MIC/IC80 (Candida tropicalis 156; 24 h): >1 mM; MIC/IC80 (Candida tropicalis 156; 48 h): >1 mM; MIC/IC80 (Candida glabrata 20/l; 24 h): >1 mM; MIC/IC80 (Candida glabrata 20/l; 48 h): >1 mM; MIC/IC80 ([11]; 24 h): >1 mM; MIC/IC80 ([11]; 48 h): >1 mM; MIC/IC80 ([12]; 24 h): >1 mM; MIC/IC80 ([12]; 48 h): >1 mM; MIC/IC80 (Absidia corymbifera 272; 24 h): >1 mM; MIC/IC80 (Absidia corymbifera 272; 48 h): >1 mM; MIC/IC80 ([13]; 72 h): >1 mM; MIC/IC80 ([13]; 120 h): >1 mM |
